Consider 30 molecules from publication PMC9298182, “De novo design of type II topoisomerase inhibitors as potential antimicrobial agents targeting a novel binding region” (RSC Medicinal Chemistry, 2022).

In one data set the target is E. coli DNA gyrase (Escherichia coli, UniProt P0AES4+P0AES6). The data set is described as follows: E. coli DNA gyrase supercoiling inhibition assay (gel-based). In kind it is biochemical. As to conditions: for IC50: supercoiling assay, mean of 2 or 3 experiments, semi-quantitative.
Data set [1] concerns the target T1, E. coli topoisomerase IV (Escherichia coli, UniProt P0AFI2+P20083). The data set is described as follows: biochemical. In kind it is biochemical.
The test system of the next data set is S. aureus NCIMB 50080. Put plainly: MIC, broth microdilution. Format: cell-based.
A further data set has as its system E. coli K12 MG1655 S83L. Put plainly: MIC, broth microdilution, fluoroquinolone mutant strain. The conditions noted are these: Escherichia coli, MG1655, read-out: E. coli K12 MG1655 S83L MIC. In kind it is cell-based. (In general: Dilution methods test growth across graded concentrations, often in twofold steps.)
In a further data set the test system is E. coli K12 MG1655. Put plainly: MIC, broth microdilution. Format: cell-based. The conditions noted are these: Escherichia coli, MG1655, read-out: E. coli K12 MG1655 MIC.
The test system of the next data set is E. coli. More on the design: method as in PMID 28507124. As to conditions: different E. coli strain, printed in column E. coli K12 MG1655; cited from earlier work.
Data set [2] concerns the target T1, E. coli topoisomerase IV. Details: method as in PMID 28507124. As to conditions: read-out: E. coli topo IV IC50; cited from earlier work.
The subject of another data set is S. aureus. The conditions noted are these: different S. aureus strain, printed in column S. aureus NCIMB 50080; cited from earlier work.
Setting [3] is: Staphylococcus aureus, NCIMB50080; read-out: S. aureus NCIMB 50080 MIC.

Like-named read-outs stand apart in the source and are kept apart here. Marks after values point to notes of the source that are not given here.

A word on the IC50: it is the point on the concentration scale where inhibition reaches its midpoint. The term melting point denotes the temperature of the solid-liquid transition. The molecule `Cl.NC[C@@H](NC(=O)c1cccc(-c2ccccc2)c1)c1ccccc1` [Compound 28] showed a melting point of 205 to 207 °C. In addition, the IC50 on E. coli DNA gyrase was determined as 76 µM.

In the case of `CCOc1cccc(-c2cccc(C(=O)N[C@H](CN)c3ccccc3)c2)c1.Cl` [Compound 30], the “fold drop in gyrase activity of (S)-enantiomer vs. (R)-enantiomer” value on E. coli DNA gyrase (30 vs. 4) was determined as 9 fold. This molecule yielded an IC50 on E. coli DNA gyrase of 180 µM.

In the case of `COc1ccccc1-c1cccc(C(=O)NC(CN)c2ccc(O)cc2)c1` (stereo not drawn) [Compound 32], it took 45 µM to reach half-maximal inhibition against E. coli DNA gyrase (IC50).

For the molecule `NC[C@H](NC(=O)c1cccc(-c2ccccc2)c1)c1ccccc1` [Compound 2], the 50% inhibitory concentration (IC50) against E. coli DNA gyrase turned out to be 60 µM.

Regarding `Cl.NC[C@H](NC(=O)c1cccc(Br)c1)c1ccccc1` [Compound 15], on E. coli DNA gyrase (relative to compound 2), the “fold drop in gyrase activity compared to 2” value is reported as “at least 3 fold”. At E. coli DNA gyrase, this molecule had an IC50 of more than 200 µM.

The molecule `CCOc1cccc(-c2cccc(C(=O)N[C@@H](CN)c3ccccc3)c2)c1` [Compound 4] displayed an IC50 on E. coli DNA gyrase of 20 µM.

The term MIC denotes the lowest concentration found to suppress growth. Consider `COc1ccccc1-c1cccc(C(=O)NC(CN)c2cccc(O)c2)c1.Cl` (stereo not drawn) [Compound 31], for which the IC50 was more than 100 µM against E. coli topoisomerase IV [1] and 41 µM against E. coli DNA gyrase. Further, the MIC in the data set with S. aureus NCIMB 50080 (setting [3]) was 128 µg/mL; in the data set on E. coli K12 MG1655 S83L it was more than 128 µg/mL; in the data set with E. coli K12 MG1655, more than 128 µg/mL.

`COc1ccccc1-c1cccc(C(=O)N[C@@H](CN)c2ccccc2)c1` [Compound 3] returned an IC50 on E. coli DNA gyrase of 20 µM.

As for `COc1ccccc1-c1cc(C(=O)N[C@@H](CN)c2ccccc2)ccc1C` [Compound 24], the IC50 at E. coli DNA gyrase is 153 µM.

On to `CCOc1cc(C)cc(-c2cc(C(=O)N[C@@H](CN)c3ccccc3)ccc2C)c1` [Compound 26], for which, at E. coli DNA gyrase, the IC50 was 56 µM.

As to `Cl.NCC(NC(=O)c1cccc(-c2cccs2)c1)c1ccc(O)cc1` (stereo not drawn) [Compound 1], the “E. coli MIC” value in the data set with E. coli is given as 8 ^a μg mL^−1. In addition, the IC50 on E. coli topoisomerase IV [2] was more than 540 µM. Besides, the “S. aureus MIC” value in the data set with S. aureus is reported as 8 ^a μg mL^−1.

For the molecule `NC[C@H](NC(=O)c1cccc(-c2cccc(O)c2)c1)c1ccccc1` [Compound 8], half-maximal inhibition against E. coli DNA gyrase (IC50) was put at 46 µM.

In the case of `Cl.NC[C@H](NC(=O)c1cccc(-c2cccc([N+](=O)[O-])c2)c1)c1ccccc1` [Compound 11], the results for the IC50 on E. coli topoisomerase IV [1] and on E. coli DNA gyrase were 94 µM and 73 µM, respectively. The MIC with S. aureus NCIMB 50080 (Staphylococcus aureus, NCIMB50080, read-out: S. aureus NCIMB 50080 MIC) was more than 128 µg/mL; in the data set on E. coli K12 MG1655 S83L, more than 128 µg/mL; with E. coli K12 MG1655, more than 128 µg/mL.

With `CCOc1cccc(-c2cccc(C(=O)NC(CN)c3cccc(O)c3)c2)c1` (stereo not drawn) [Compound 33], the IC50 at E. coli DNA gyrase worked out at 41 µM.

On to `CCOc1cccc(-c2cccc(C(=O)N[C@@H](CN)c3ccccc3)c2)c1F.Cl` [Compound 6, N-[(1R)-2-amino-1-phenylethyl]-3'-ethoxy-2'-fluoro-[1,1'-biphenyl]-3-carboxamide hydrochloride], for which the values for the IC50 at E. coli topoisomerase IV [1] and on E. coli DNA gyrase were more than 100 µM and 12 µM, respectively. For the same molecule, on E. coli DNA gyrase (relative to compound 2), the “fold increase in binding affinity against gyrase vs. unsubstituted 2” value worked out at 5 fold. Further, the MIC with S. aureus NCIMB 50080 (setting [3]) was 32 µg/mL; with E. coli K12 MG1655 S83L it was 64 µg/mL; in the data set on E. coli K12 MG1655 it was 64 µg/mL.

`COC(=O)c1cccc(-c2cccc(C(=O)N[C@@H](CN)c3ccccc3)c2)c1.Cl` [Compound 13]: the melting point lay in the range of 212 to 215 °C. This molecule also returned an IC50 on E. coli DNA gyrase of 24 µM.

Take `CCOc1cccc(-c2cccc(C(=O)NC(CN)c3ccc(O)cc3)c2)c1F` (stereo not drawn) [Compound 35]: the IC50 against E. coli DNA gyrase is more than 200 µM.

For the molecule `CCOc1cccc(-c2cccc(C(=O)NC(CN)c3cccc(O)c3)c2)c1F` (stereo not drawn) [Compound 34], it took 62 µM to reach half-maximal inhibition against E. coli DNA gyrase (IC50).

In the case of `CCOc1cc(-c2cccc(C(=O)N[C@@H](CN)c3ccccc3)c2)ccc1F.Cl` [Compound 7], the melting point was 219 to 221 °C. The molecule further showed a concentration for half-maximal inhibition (IC50) against E. coli topoisomerase IV [1] of 64 µM. At E. coli topoisomerase IV [1] (E. coli gyrase vs. E. coli topo IV), the “fold more potent against gyrase than topo IV” value is approximately 4 fold. The IC50 on E. coli DNA gyrase was 17 µM. In addition, in the data set with S. aureus NCIMB 50080 (setting [3]), the MIC amounted to 16 µg/mL. For the same molecule, the MIC in the data set with E. coli K12 MG1655 S83L came to 32 µg/mL. In the data set with E. coli K12 MG1655, the MIC is 32 µg/mL.

In turn, `CCOc1cccc(-c2cc(C(=O)N[C@@H](CN)c3ccccc3)ccc2C)c1` [Compound 25] registered an IC50 against E. coli DNA gyrase of 63 µM.

With `Cc1ccccc1C(=O)N[C@@H](CN)c1ccccc1` [Compound 21], at E. coli DNA gyrase, the 50% inhibitory concentration (IC50) was more than 100 µM.

The molecule `COC(=O)c1ccccc1-c1cccc(C(=O)N[C@@H](CN)c2ccccc2)c1.Cl` [Compound 14] displayed a melting point of 145 to 147 °C. The IC50 against E. coli DNA gyrase stood at 41 µM.

With `Cl.NC[C@H](NC(=O)c1cccc(-c2ccccc2C(F)(F)F)c1)c1ccccc1` [Compound 5], the figures for the IC50 against E. coli topoisomerase IV [1] and against E. coli DNA gyrase were more than 100 µM and 21 µM, respectively. The MIC came to 16 µg/mL in the data set with S. aureus NCIMB 50080 (setting [3]), 32 µg/mL with E. coli K12 MG1655 S83L and 32 µg/mL in the data set with E. coli K12 MG1655.

`COc1ccccc1-c1cccc(C(=O)N[C@H](CN)c2ccccc2)c1` [Compound 29] had an IC50 at E. coli DNA gyrase of 36 µM.

In turn, `Cl.NC[C@H](NC(=O)c1cccc(-c2ccccc2Cl)c1)c1ccccc1` [Compound 9] showed a melting point of 160.5 to 163 °C. The IC50 at E. coli DNA gyrase was 35 µM.

As to `CC(=O)c1cccc(-c2cccc(C(=O)N[C@@H](CN)c3ccccc3)c2)c1.Cl` [Compound 12], the melting point was ~ 238 °C (dec.). This molecule registered an IC50 against E. coli DNA gyrase of 42 µM.

`NC[C@H](NC(=O)c1cccc(-c2cccc(Cl)c2)c1)c1ccccc1` [Compound 10] came in with an IC50 against E. coli DNA gyrase of 39 µM.

Turning to `Cc1ccc(C(=O)N[C@@H](CN)c2ccccc2)cc1.Cl` [Compound 23], the “gyrase inhibition judged visually from gel” value on E. coli DNA gyrase (at 100 µM, Fig. S2) was “some inhibition”. On E. coli DNA gyrase, this molecule came in with an IC50 of more than 100 µM.

At E. coli DNA gyrase, `NC[C@H](NC(=O)c1cncc(-c2ccccc2Cl)c1)c1ccccc1` [Compound 27] returned an IC50 of 35 µM.

`Cc1cccc(C(=O)N[C@@H](CN)c2ccccc2)c1` [Compound 22] returned an IC50 at E. coli DNA gyrase of more than 100 µM.
